Tests used:
[1] = molecular target: T1, Phospholipase D1 (Homo sapiens, UniProt Q13393); experiment: Inhibition of PLD1 in human Calu1 cells; format: cell-based
T1 sequence (Q13393 whole entry): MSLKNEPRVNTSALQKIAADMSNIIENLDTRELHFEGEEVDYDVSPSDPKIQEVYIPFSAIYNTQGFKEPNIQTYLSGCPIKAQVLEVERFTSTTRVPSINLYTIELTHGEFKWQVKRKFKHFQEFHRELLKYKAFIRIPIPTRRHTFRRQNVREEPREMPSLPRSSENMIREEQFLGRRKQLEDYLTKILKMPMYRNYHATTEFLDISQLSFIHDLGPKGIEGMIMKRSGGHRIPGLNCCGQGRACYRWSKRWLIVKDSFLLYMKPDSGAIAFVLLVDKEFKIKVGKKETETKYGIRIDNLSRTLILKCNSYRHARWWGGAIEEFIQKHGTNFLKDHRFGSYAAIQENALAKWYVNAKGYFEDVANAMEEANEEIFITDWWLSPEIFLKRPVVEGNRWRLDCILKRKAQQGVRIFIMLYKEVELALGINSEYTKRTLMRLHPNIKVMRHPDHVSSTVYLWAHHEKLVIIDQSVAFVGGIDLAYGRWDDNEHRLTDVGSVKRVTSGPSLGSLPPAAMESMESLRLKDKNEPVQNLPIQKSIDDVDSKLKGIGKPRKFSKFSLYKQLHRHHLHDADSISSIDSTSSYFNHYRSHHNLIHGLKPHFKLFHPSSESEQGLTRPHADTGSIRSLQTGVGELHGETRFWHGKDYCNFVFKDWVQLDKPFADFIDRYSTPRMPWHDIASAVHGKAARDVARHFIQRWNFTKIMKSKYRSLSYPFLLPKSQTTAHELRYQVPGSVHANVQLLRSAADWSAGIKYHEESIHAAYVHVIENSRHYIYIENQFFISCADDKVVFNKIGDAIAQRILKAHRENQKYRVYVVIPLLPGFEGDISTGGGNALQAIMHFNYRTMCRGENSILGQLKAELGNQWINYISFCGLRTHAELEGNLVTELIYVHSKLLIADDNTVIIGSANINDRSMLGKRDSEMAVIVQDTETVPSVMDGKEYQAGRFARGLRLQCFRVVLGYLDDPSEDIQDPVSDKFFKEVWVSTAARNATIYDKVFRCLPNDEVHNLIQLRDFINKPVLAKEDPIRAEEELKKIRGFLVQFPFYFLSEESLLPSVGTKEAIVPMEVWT

[2] = Half life in rat at […], iv administered as cassette dose; format: ADME, organism-based; conditions: in vivo
[3] = Fraction unbound in rat plasma; format: ADME, cell-free
[4] = Fraction unbound in human plasma; format: ADME, cell-free
[5] = Fraction unbound in rat brain; format: ADME, tissue-based
[6] = molecular target: T2, Phospholipase D2 (Homo sapiens, UniProt O14939); experiment: Inhibition of GFP-fused PLD2 (unknown origin) expressed in HEK293 cells by cellular assay; format: cell-based
T2 sequence (O14939 whole entry, the tested form may be a part): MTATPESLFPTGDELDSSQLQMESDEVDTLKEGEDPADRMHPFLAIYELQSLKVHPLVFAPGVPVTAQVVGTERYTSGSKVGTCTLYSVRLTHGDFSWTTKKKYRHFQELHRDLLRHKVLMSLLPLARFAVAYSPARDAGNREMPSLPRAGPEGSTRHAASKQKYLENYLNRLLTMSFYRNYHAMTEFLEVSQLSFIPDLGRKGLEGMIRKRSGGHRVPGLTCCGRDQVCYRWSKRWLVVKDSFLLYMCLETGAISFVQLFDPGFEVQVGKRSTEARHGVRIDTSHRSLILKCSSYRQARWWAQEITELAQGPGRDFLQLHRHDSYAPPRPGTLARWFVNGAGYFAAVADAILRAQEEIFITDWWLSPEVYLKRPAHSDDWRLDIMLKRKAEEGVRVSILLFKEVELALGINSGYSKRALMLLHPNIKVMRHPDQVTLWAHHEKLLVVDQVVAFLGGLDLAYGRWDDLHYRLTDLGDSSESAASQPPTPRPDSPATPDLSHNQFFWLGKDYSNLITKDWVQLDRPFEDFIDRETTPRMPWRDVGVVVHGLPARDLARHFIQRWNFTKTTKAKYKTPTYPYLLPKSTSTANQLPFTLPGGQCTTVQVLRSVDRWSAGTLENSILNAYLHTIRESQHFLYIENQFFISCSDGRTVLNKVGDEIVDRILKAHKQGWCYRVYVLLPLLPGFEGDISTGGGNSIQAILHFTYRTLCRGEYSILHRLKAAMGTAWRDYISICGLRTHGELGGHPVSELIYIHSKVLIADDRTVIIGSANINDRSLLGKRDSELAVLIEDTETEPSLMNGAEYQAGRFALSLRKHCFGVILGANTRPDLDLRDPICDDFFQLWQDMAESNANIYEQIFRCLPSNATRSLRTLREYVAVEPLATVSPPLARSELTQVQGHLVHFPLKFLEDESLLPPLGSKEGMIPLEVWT

[7] = […] clearance in rat at […], iv administered as cassette dose; format: ADME, organism-based; conditions: in vivo
[8] = Volume of distribution at steady state in rat at […], iv administered as cassette dose; format: ADME, organism-based; conditions: in vivo, read-out: Vdss
[9] = molecular target: T1, Phospholipase D1
Description: Inhibition of PLD1 (unknown origin)

[10] = molecular target: T2, Phospholipase D2
Description: Inhibition of PLD2 (unknown origin)

[11] = species: Homo sapiens; experiment: Selectivity ratio of IC50 for […] (unknown origin) to IC50 for […] (unknown origin)

Row | SMILES | IC50 [1] [nM] | Fu [3] [%] | Fu [4] [%] | Fu [5] [%] | IC50 [6] [nM] | further results
1 | O=C(NCCN1CCC2(CC1)C(=O)NC[C@H]2c1ccc(F)cc1)c1cc2ccccc2[nH]1 | 21 | 19.8 | 12.4 | 0.4 | 2.5 | half-life [2]: 3.63 h; CLH [7]: 340 mL/min/kg; Vd [8]: 80 L/kg
2 | C[C@@H](CN1CCC2(CC1)C(=O)NC[C@@H]2c1ccc(F)cc1)NC(=O)c1cc2ccccc2[nH]1 | 16 |  |  |  | 140 | 
3 | C[C@@H](CN1CCC2(CC1)C(=O)NC[C@@H]2c1ccc(F)cc1)NC(=O)c1ccc(F)cc1 | 1700 |  |  |  | 2800 | 
4 | O=C(NCCN1CCC2(CC1)C(=O)NCN2Cc1cccnc1)c1ccc2ccccc2c1 |  |  |  |  |  | IC50 [9]: > 30000 nM; IC50 [10]: 360 nM; Ratio IC50 [11]: > 80
5 | C[C@@H](CN1CCC2(CC1)C(=O)NC[C@@H]2c1ccc(F)cc1)NC(=O)C#Cc1ccccc1 | 320 |  |  |  | 4000 | 
6 | O=C(C#Cc1ccccc1)NCCN1CCC2(CC1)C(=O)NC[C@@H]2c1ccc(F)cc1 | 6400 |  |  |  | 810 | 
7 | O=C(NCCN1CCC2(CC1)C(O)=NC[C@H]2c1ccc(F)cc1)c1cnc2ccccc2c1 |  | 31.4 | 12.2 | 2.6 |  | 
8 | O=C(C#Cc1ccccc1)NCCN1CCC2(CC1)C(=O)NC[C@H]2c1ccc(F)cc1 | 1200 | 16 | 13.8 | 1.3 | 70 | 
9 | O=C(NCCN1CCC2(CC1)C(=O)NC[C@@H]2c1ccc(F)cc1)c1cc2ccccc2[nH]1 | 320 |  |  |  | 43 | 
10 | C[C@@H](CN1CCC2(CC1)C(=O)NC[C@H]2c1ccc(F)cc1)NC(=O)C#Cc1ccccc1 | 16 |  |  |  | 150 | 
11 | C[C@@H](CN1CCC2(CC1)C(=O)NC[C@H]2c1ccc(F)cc1)NC(=O)c1ccc2ccccc2c1 | 820 | 6.1 | 4.5 | 0.3 | 26 | 
12 | C[C@@H](CN1CCC2(CC1)C(=O)NC[C@H]2c1ccc(F)cc1)NC(=O)c1ccc(F)cc1 | 250 |  |  |  | 210 | 
13 | O=C(NCCN1CCC2(CC1)C(O)=NC[C@H]2c1ccc(F)cc1)c1ccc(F)cc1 |  | 24.6 | 10.8 | 2.7 |  | half-life [2]: 3.2 h; CLH [7]: 250 mL/min/kg; Vd [8]: 56 L/kg
14 | C[C@@H](CN1CCC2(CC1)C(=O)NC[C@H]2c1ccc(F)cc1)NC(=O)c1cc2ccccc2[nH]1 | 1 | 13 | 13.6 | 0.4 | 12 | 

From ChEMBL document CHEMBL4325916, “Isoform selective PLD inhibition by novel, chiral 2,8-diazaspiro[4.5]decan-1-one derivatives” (Bioorg Med Chem Lett, 2018)
